{"source": "paper PMC12113347", "about": "“Compound 3d Attenuates Metabolic Dysfunction-Associated Steatohepatitis via Peroxisome Proliferator-Activated Receptor Pathway Activation and Inhibition of Inflammatory and Apoptotic Signaling” (Metabolites, 2025)", "key": {"L02 cells": {"tested_on": "L02 cells", "experiment": "Mitochondrial membrane potential test (JC-1) in FFA-treated L02 cells", "format": "cell-based, human", "conditions": "FFA-induced depolarization; 3d 20 μM", "protocol": "L02 cells were inoculated in 6-well plates at 1 × 10^5 cells/mL, and after completing the lipid-accumulating cell modeling treatment according to the method described in 2.1, the cells were collected and washed with 1× PBS buffer.\nMitochondrial membrane potential (MMP) test: After the cells were co-incubated with FFAs and drugs for 24 h, the remaining medium was discarded and the cells were washed with 1× PBS buffer before being treated with JC-1 probe dye. A laser confocal microscope was used to take photographs, which were quantitatively analyzed using ImageJ software (V. 1.52a, Wayne Rasband National Institutes of Health, Bethesda, MD, USA)."}, "PPAR-related proteins": {"tested_on": "PPAR-related proteins", "experiment": "Western blotting of PPAR-related proteins in FFA-stimulated L02 cells", "format": "cell-based, human", "conditions": "Figure 6A", "protocol": "(§1) Proteins were extracted using RIPA lysate and a BCA kit for protein concentration, separated by SDS-PAGE gel electrophoresis, and transferred to PVDF membranes. The membranes were sealed with 5% skimmed milk and incubated at 4 °C overnight with primary antibodies, followed by co-incubation with the corresponding secondary antibodies. The protein bands were imaged using an infrared laser imager and quantitatively analyzed by ImageJ software. The antibodies used for Western blot were Acox1 (Abcam, ab184032), Acaa1 (Abcam, ab154091), EHHADH (Abcam, ab123490), PPARγ (Abcam, ab272718), PPARα (Abcam, ab314112), PPARδ (Abcam, ab178866), P38 (Abcam, ab31828), p-P38 (Abcam, ab195049), Bcl-2 (Abcam, ab182858), Caspase8 (Abcam, ab25901), anti-rabbit IgG (CST, 7074 S), and α-tubulin (Abcam, ab7291)."}, "[1]": {"experiment": "Pharmacokinetics of 3d in male SD rats, tail vein injection", "format": "in vivo", "conditions": "30 mg/kg; for half-life: SD, iv", "protocol": "The pharmacokinetics of 3d in vivo were evaluated using male SD rats. Following a 12 h fast, the rats were administered 3d (30 mg/kg) via gavage or tail vein injection, respectively, and blood samples were collected within 24 h for analysis of 3d blood concentration via HPLC. The PK parameters were calculated using the DAS 3.0, and oral bioavailability (F) was obtained by the following formula.F = AUCpo × Di.v/AUCi.v × Dpo × 100%(1)"}, "C57BL/6J male mice": {"tested_on": "C57BL/6J male mice", "experiment": "HFD-induced MASH model in mice: serum and liver biochemistry, body and liver weight, histology", "format": "in vivo", "protocol": "All animal studies were conducted in accordance with national legislation and local guidelines at the Center for Laboratory Animals in Tianjin University of Science and Technology and approved by the Animal Ethics Committee of Tianjin University of Science and Technology (8 March 2022, Tianjin, China). The C57BL/6J male mice (6 weeks) were purchased from Henan Scribex Biotechnology Co, Ltd (Zhenzhou, China). Following a one-week period of acclimatization, the mice were fed a high-fat diet (HFD) comprising 60% fat (TP23300, Trophic Animal Feed High-Tech Co., Ltd., (Nantong, China)) and a low-fat control diet (TP23302, Trophic Animal Feed High-Tech Co., Ltd., (Nantong, China)) for 16 weeks.\nAfter 16 weeks of continuous feeding on a high-fat diet, key indicators were tested to determine modeling success and drug administration was initiated. The mice were randomly divided into seven groups (n = 10) according to their body weight. The groups were as follows: control group (control diet, 0.5% CMC-Na), model group (HFD, 0.5% CMC-Na), positive control group (HFD, 100 mg/kg Fenofibrate), elafibranor group (HFD, 30 mg/kg), and 3d group (HFD, 3, 10, 30 mg/kg). The experiment was conducted over a period of eight weeks.\nAfter fasting for 12 h, the mice were anaesthetized and blood samples were collected, as were the mice liver tissues. The ileal contents were collected and immediately frozen in liquid nitrogen and then transferred to storage at −80 °C. The blood samples were subjected to centrifugation at 3000 rpm/min for 10 min to obtain supernatant serum, which was stored at −80 °C. The liver tissues were weighed, and a portion of the liver was preserved in 4% paraformaldehyde for subsequent pathological sectioning, including staining with H&E, Masson, and Oil Red O. The remaining samples were stored at −80 °C for testing of various biochemical indices.\nThe serum levels of TG, total cholesterol (TC), low-density lipoprotein cholesterol (LDL-C), […] aminotransferase (AST), ALT, and TNF-α were determined according to the instructions of the kit. The levels of glutathione (GSH) and superoxide dismutase (SOD) were measured using liver tissue homogenates. The kits were purchased from the Nanjing Jiancheng Institute of Biological Engineering (Nanjing, China)."}, "RAW264.7 cells": {"tested_on": "RAW264.7 cells", "experiment": "LPS-induced RAW264.7 cell inflammation model (TNF-α, NO, IL-6 in supernatant)", "format": "cell-based", "protocol": "RAW264.7 cells were bought from Guangzhou Huatuo Biological Technology Co., Ltd. (Guangzhou, China). RAW264.7 cells (1 × 10^5 cells/mL) were inoculated in 24-well plates. After 24 h, LPS (1 μg/mL) was added to induce cell inflammation. Subsequently, curcumin (100 μM), fenofibric acid (FA, 100 μM), or 3d (10, 20, 40 80 μM) was added for 24 h. The cell supernatant was collected for analysis of inflammatory factors, including nitric oxide (NO), interleukin-6 (IL-6), and tumor necrosis factor (TNF-α)."}, "[2]": {"tested_on": "PPAR signaling pathway and p38 MAPK pathway proteins", "experiment": "Proteomics and Western blotting of liver tissue of HFD mice (PPAR pathway, p38 MAPK and apoptosis proteins)", "format": "in vivo", "protocol": "Proteome sequencing of liver tissue samples was performed according to the specific requirements of the protocol by Beijing Qinglian Baiao Biotechnology Co., Ltd. (Beijing, China). Mouse fecal samples were collected and frozen in liquid nitrogen and stored at −80 °C.\nas §1"}, "[3]": {"conditions": "male, rat, blood, SD rats, intravenous"}, "[4]": {"conditions": "HFD mice, liver tissue homogenates"}, "[5]": {"conditions": "HFD-fed mice, 30 mg/kg, p < 0.05 vs. model"}, "[6]": {"conditions": "LPSs-induced, RAW264.7 macrophages, p < 0.01"}, "[7]": {"conditions": "HFD mice liver, Western blot, Figure 7A"}}, "note": "Where two headings read alike, the source gives them in different places.", "data": [{"smiles": "CNc1ccc(C(=O)/C=C/c2cc(C)c(OC(C)(C)C(=O)OC(C)(C)C)c(C)c2)cc1", "note": "[3d]", "values": [{"measurement": "mitochondrial membrane potential", "setting": "L02 cells", "value": "partially restored"}, {"measurement": "PPAR-related proteins in L02 cells", "setting": "PPAR-related proteins", "value": "significantly increased"}, {"measurement": "AUC(0-t)", "setting": "[1]; SD rats, intravenous", "value": "108,480 ng/L*min"}, {"measurement": "AUC(0-∞)", "setting": "[1]; SD rats, intravenous", "value": "136,923 ng/L*min"}, {"measurement": "AUMC(0-t)", "setting": "[1]; SD rats, intravenous", "value": "11,816,712"}, {"measurement": "AUMC(0-∞)", "setting": "[1]; SD rats, intravenous", "value": "29,781,860"}, {"measurement": "Cz", "setting": "[1]; SD rats, intravenous", "value": 107, "unit": "ng/L"}, {"measurement": "VRT(0-t)", "setting": "[1]; SD rats, intravenous", "value": "10,194 min^2"}, {"measurement": "VRT(0-∞)", "setting": "[1]; SD rats, intravenous", "value": "66,630 min^2"}, {"measurement": "Zeta", "setting": "[1]; SD rats, intravenous", "value": 0.004, "unit": "min⁻¹"}, {"measurement": "half-life", "setting": "[1]; male, rat, blood, SD rats, intravenous, read-out: T1/2", "value": 3.03, "unit": "h"}, {"measurement": "half-life", "setting": "[1]; male, rat, blood, rats, intravenous administration, read-out: half-life (converted)", "value": 3, "unit": "h"}, {"measurement": "Cmax", "setting": "[1]; [3]", "value": 1.09, "unit": "ng/mL"}, {"measurement": "Tmax", "setting": "[1]; [3]", "value": 5, "unit": "min"}, {"measurement": "MRT last", "setting": "[1]; male, rat, blood, SD rats, intravenous, read-out: MRT(0-t) (converted)", "value": 1.8, "unit": "h"}, {"measurement": "MRT inf", "setting": "[1]; male, rat, blood, SD rats, intravenous, read-out: MRT(0-∞) (converted)", "value": 3.62, "unit": "h"}, {"measurement": "AUC intravenous relative to oral administration", "setting": "[1]; rats", "value": "four times greater"}, {"measurement": "liver fibrosis (Masson staining)", "setting": "C57BL/6J male mice; HFD mice", "value": "successfully reversed"}, {"measurement": "liver steatosis and lipid accumulation (HE, Oil Red O sections)", "setting": "C57BL/6J male mice; HFD mice", "value": "significantly reduce the steatosis and ballooning in the liver and bring it back to normal"}, {"measurement": "serum TNF-α levels", "setting": "C57BL/6J male mice; HFD mice", "value": "reversed and returned to normal levels"}, {"measurement": "serum levels of LDL-C", "setting": "C57BL/6J male mice; HFD mice", "value": "markedly diminish"}, {"measurement": "body weight", "setting": "C57BL/6J male mice; HFD mice, 8 weeks of treatment", "value": "no significant effect"}, {"measurement": "serum TG levels", "setting": "C57BL/6J male mice; HFD mice, 8 weeks, fenofibrate 100 mg/kg, elafibranor 30 mg/kg, 3d 3, 10, 30 mg/kg", "value": "decreased and returned to normal levels"}, {"measurement": "liver GSH content", "setting": "C57BL/6J male mice; [4]", "value": "counteracting the reduction"}, {"measurement": "liver SOD content", "setting": "C57BL/6J male mice; [4]", "value": "counteracting the reduction"}, {"measurement": "TC levels", "setting": "C57BL/6J male mice; HFD mice, 3d 3, 10, 30 mg/kg", "value": "dose-dependent reduction"}, {"measurement": "serum ALT activity", "setting": "C57BL/6J male mice; HFD mice, 3d 3, 10, 30 mg/kg", "value": "dose-dependent reduction"}, {"measurement": "serum AST activity", "setting": "C57BL/6J male mice; HFD mice, 3d 3, 10, 30 mg/kg", "value": "dose-dependent reduction"}, {"measurement": "serum LDL-C decline", "setting": "C57BL/6J male mice; [5]", "value": 45, "unit": "%"}, {"measurement": "serum TC reduction", "setting": "C57BL/6J male mice; [5]", "value": 32, "unit": "%"}, {"measurement": "serum TG decrease", "setting": "C57BL/6J male mice; [5]", "value": 39, "unit": "%"}, {"measurement": "serum TNF-α reduction", "setting": "C57BL/6J male mice; [5]", "value": 57, "unit": "%"}, {"measurement": "levels of each inflammatory factor (TNF-α, NO, IL-6)", "setting": "RAW264.7 cells; LPS 1 μg/mL, 3d 10, 20, 40, 80 μM, 24 h", "value": "significantly reduced"}, {"measurement": "IL-6 reduction", "setting": "RAW264.7 cells; [6]", "value": 48, "unit": "%"}, {"measurement": "NO decrease", "setting": "RAW264.7 cells; [6]", "value": 51, "unit": "%"}, {"measurement": "TNF-α reduction", "setting": "RAW264.7 cells; [6]", "value": 63, "unit": "%"}, {"measurement": "activation of caspase 8", "setting": "[2]; [7]", "value": "reversed the activation"}, {"measurement": "expression of the anti-apoptotic protein Bcl-2", "setting": "[2]; [7]", "value": "significantly up-regulated"}, {"measurement": "degree of P38 phosphorylation", "setting": "[2]; HFD mice liver, Western blot, Figure 7B", "value": "significantly reduced"}, {"measurement": "upregulation of Acox1, EHHADH, Acaa1", "setting": "[2]; HFD mice liver, p < 0.001", "value": "2.3–3.1 fold"}, {"measurement": "decrease in caspase-8", "setting": "[2]; HFD mice liver, p < 0.01", "value": 61, "unit": "%"}, {"measurement": "increase in Bcl-2", "setting": "[2]; HFD mice liver, p < 0.01", "value": 1.8, "unit": "fold"}, {"measurement": "reduction in p-p38", "setting": "[2]; HFD mice liver, p < 0.01", "value": 54, "unit": "%"}, {"measurement": "PPAR-related proteins (PPAR α, γ, δ, Acox1, EHHADH, Acaa1) in liver tissues", "setting": "[2]; HFD mice, Western blot, Figure 6B", "value": "decreasing trend of PPAR-related proteins was significantly reversed"}]}]}
